melting point: 246 to 247 °C
Compound: CCC(C)C(CC)C1=NC2=C(c3ccc(Cl)cc3Cl)N=NC(=O)C2=N1 (stereo not shown) [Example 1, 4-(2,4-dichlorophenyl)-2-ethyl-1-(1-ethyl)propyl-imidazo[4,5-d]pyridazin-7-one]

Source: patent US6518271B1, “1H-imidazo[4,5-d]pyridazin-7-one, and corresponding thiones as corticotropin releasing factor (CRF) receptor ligands” (Bristol-Myers Squibb Company, priority 1998, dated 2003)
